Numbered stars: 1 amine (or outer) side, 2 acyl side, 3 side chain; on linkers, the order of the positions; unused ones are H or OH. Bridge positions count the residues as written; N and C are the ends. Square brackets hold non-standard residues; d marks the D form. Side chains are listed from the residue outwards. Ends that are not written are not given here. Peptide text beside a SMILES is read from it. * marks the point of attachment. C18 diacid = O=C(O)CCCCCCCCCCCCCCCCC(=O)*; γGlu = O=C(O)[C@H](CCC(=O)[*:2])N[*:1]; AEEA = NCCOCCOCC(=O)O; Aib = CC(C)(N)C(=O)O
T1: Amylin Receptor (AMY-R) (Homo sapiens (Human), UniProt P30988)
T1 sequence 1: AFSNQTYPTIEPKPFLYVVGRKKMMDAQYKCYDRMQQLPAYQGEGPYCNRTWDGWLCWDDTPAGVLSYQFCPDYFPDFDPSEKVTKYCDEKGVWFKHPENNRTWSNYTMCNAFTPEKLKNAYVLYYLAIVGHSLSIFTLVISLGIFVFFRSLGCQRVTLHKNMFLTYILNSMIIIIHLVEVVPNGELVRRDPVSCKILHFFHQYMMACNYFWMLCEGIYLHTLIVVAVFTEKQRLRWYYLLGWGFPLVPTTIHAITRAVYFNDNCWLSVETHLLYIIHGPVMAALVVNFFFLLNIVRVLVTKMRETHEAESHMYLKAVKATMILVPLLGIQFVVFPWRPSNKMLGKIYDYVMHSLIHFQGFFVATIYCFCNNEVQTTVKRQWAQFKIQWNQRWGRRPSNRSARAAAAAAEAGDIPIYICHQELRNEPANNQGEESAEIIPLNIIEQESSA
T1 sequence 2: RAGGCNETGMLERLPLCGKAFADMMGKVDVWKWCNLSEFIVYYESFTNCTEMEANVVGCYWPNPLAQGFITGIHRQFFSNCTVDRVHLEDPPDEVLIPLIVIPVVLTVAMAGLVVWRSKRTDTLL

T2: Calcitonin Receptor (CTR) (Homo sapiens (Human), UniProt P30988)
T2 sequence: T1 sequence 1


What was measured:
20 week HFD SD rats = test: Single dose food intake and body weight test in HFD SD rats (Examples 3, 4, 5, 8, 10, 12); assay type: in vivo, rat; settings: for Food Intake ΔFOOD Sustained Attenuation (36 nmol/kg) Hours: 36 nmol/kg single dose; for Food Intake ΔFOOD Sustained Attenuation (4 nmol/kg) Hours: Table 4.4: acylation linkers, backbone KBP-066, single s.c. dose 4 nmol/kg, HFD SD rats
Excerpt: In the animal model studies, 12 week healthy Sprague Dawley (SD) rats were used to assess the potency of the acylated KBPs. In some examples they were fed normal chow during prior and during the tests, whereas in other examples, the 12 week healthy SD rats were fed high fat diet (HFD) for eight weeks prior to the test and for the duration of the test.
(§1) Rats were single caged four days prior to the test. Rats were randomized by weight into eleven groups (Vehicle (0.9% NaCl), KBPs (doses: 36 nmol/kg (150-157 μg/kg)). They were fasted overnight and then treated with a single dose of peptide or vehicle in the morning using subcutaneous administration. Food intake was monitored in the following intervals (0-4 hours, 4-24 hours, 24-48 hours . . . 144-168 hours). Body weight was measured at baseline and every 24 hours post s.c injection.
as §1, with “(doses: 4 nmol/kg (^17 μg/kg), 12 nmol/kg (^50 μg/kg) or” for “(doses:”, “([…]” for “(150-157”
Single high dose effect of A11/3 acylated variants of KBP-042 and KBP-066 on food intake and body weight in 20 week HFD SD rats. Rats were single caged four days prior to the test. Rats were randomized by weight into eleven groups (Vehicle (0.9% NaCl), KBPs (doses: 300 nmol/kg (^1000 μg/kg)).
The rats were fasted overnight and then treated with a single dose of peptide or vehicle in the morning using subcutaneous administration. Food intake was monitored in the following intervals (0-4 hours, 4-24 hours, 24-48 hours . . . […]). Body weight was measured at baseline and every 24 hours post s.c injection.
(§2) Rats were single caged four days prior to the test. Rats were randomized by weight into eight groups (Vehicle (0.9% NaCl), KBPs (doses: 3 nmol/kg (^10-11 μg/kg)). They were fasted overnight and then treated with a single dose of peptide or vehicle in the morning using subcutaneous administration. Food intake was monitored in the following intervals (0-4 hours, 4-24 hours, 24-48 hours, 48-72 hours, and 72-96 hours). Body weight was measured at baseline and at 4 hour, 24 hours, 48 hours, 72 hours and 96 hours post s.c injection.
as §2, with “4” for “3”, “s.c.” for “s.c”, “injection. Two backbones were tested, KBP-066 and KBP-021.” for “injection.”
as §2, with “4” for “3”, “(^13-14” for “(^10-11”

[1] = Thioflavin T (ThT) fibrillation screening assay; assay type: physicochemical; settings: for Peptide Fibrillation Thioflavin T ΔFluorescence 18 h Assay Score: Table 4.4: acylation linkers, backbone KBP-066, tier from 18 h fluorescence signal, 37° C.
Protocol: Thioflavin T (T3516, Sigma). Assay stock ThT is prepared as a 10 mM solution in 5 mM sodium phosphate pH 7.2. Aliquots are stored, protected from light, at −20° C. Stock ThT is thawed and diluted just prior to use.
For the tested calcitonin mimetics (hereinafter referred to as “acylated KBPs” or simply “KBPs”), final buffer conditions are 10 mM Tris-HCl pH 7.5.
The final peptide concentration in the wells should be 100-200 μM, and the final ThT concentration should be 4 μM. ThT is added last (10 μL).
Thioflavin T assays were also conducted. Thioflavin T (ThT) is a dye widely used for the detection of amyloid fibrils. In the presence of fibrils, ThT has an excitation maximum at 450 nm and enhanced emission at 480 nm, whereas ThT is essentially non-fluorescent at these wavelengths when not bound to amyloid fibrils.
Thus, ThT in combination with a fluorescent plate reader is an ideal tool for screening large numbers of in vitro samples for the presence of amyloid fibrils. […]
The plate is loaded into a fluorescent plate reader, such as a SpectraMax with SoftMax Pro 7.0.2 software, and the template set to 37° C. with excitation wavelength at 450 nm and emission wavelength at 480 nm.
Plate reader should measure fluorescence every 10 minutes for 24 hours with a five-second plate shake before the first read and a three-second plate shake before all other reads. Alternatively, the plate is read after the following incubation times; 0, 1, 2, 4 and 24 hours.
Plot relative fluorescence units (RFU) as a function of time. Fibrillation is determined as an increase in RFU over baseline as described by Nielsen et. al.
In this filing four fibrillations tiers have been defined based on the 18 h fluorescence signal to get a single output that reflects the peptides fibrillation potential: None=<1000 RFU, Low=1000-3000 RFU, Medium=3000-10000, High=>10000

Amylin Receptor (AMY-R) = molecular target: T1, Amylin Receptor (AMY-R); test: cell-based or functional assay
[2] = molecular target: T2, Calcitonin Receptor (CTR); test: cell-based or functional assay

β-arrestin Fold Recruitment EC50 values (10^-09 M) (Amylin Receptor (AMY-R)) | β-arrestin Fold Recruitment EC50 values (10^-9 M) [2] | β-arrestin Prolonged CTR response (10 nM) tAUC value 0-72 h [2] | Molecule | Food Intake ΔFOOD Sustained Attenuation (36 nmol/kg) Hours (20 week HFD SD rats) | also measured
– | – | – | KBP-377: KBP-089 core, A32/3 acylation (Ac-CSNLSTCMLGRLSQDLHRLQTYPKTDVGANAPK; not fully specified (residue 33); ends and bridges not checked) | 72 h | –
– | – | – | KBP-372: KBP-042 core, A11/3 acylation (Ac-CSNLSTCVLGKLSQELHKLQTYPRTDVGANAP-NH2; not fully specified (residue 11); ends and bridges not checked) | 96 h | protracted in vivo efficacy, high dose test (in words) (20 week HFD SD rats; single s.c. dose 300 nmol/kg): superior protracted in vivo efficacy that lasted for days
– | – | – | CC(=O)N[C@H]1CSSC[C@@H](C(=O)NC(C)(C)C(=O)N[C@@H](CC(C)C)C(=O)NCC(=O)N[C@@H](CCCCNC(=O)COCCOCCNC(=O)CC[C@H](NC(=O)CCCCCCCCCCCCCCCCC(=O)O)C(=O)O)C(=O)N[C@@H](CC(C)C)C(=O)N[C@@H](CO)C(=O)N[C@@H](CCC(N)=O)C(=O)N[C@@H](CC(=O)O)C(=O)N[C@@H](CC(C)C)C(=O)N[C@@H](Cc2c[nH]cn2)C(=O)N[C@@H](CCCNC(=N)N)C(=O)N[C@@H](CC(C)C)C(=O)N[C@@H](CCC(N)=O)C(=O)N[C@H](C(=O)N[C@@H](Cc2ccc(O)cc2)C(=O)N2CCC[C@H]2C(=O)N[C@@H](CCCCN)C(=O)N[C@H](C(=O)N[C@@H](CC(=O)O)C(=O)N[C@H](C(=O)NCC(=O)N[C@@H](C)C(=O)N[C@@H](CC(N)=O)C(=O)N[C@@H](C)C(=O)N2CCC[C@H]2C(N)=O)C(C)C)[C@@H](C)O)[C@@H](C)O)NC(=O)[C@H]([C@@H](C)O)NC(=O)[C@H](CO)NC(=O)[C@H](CC(C)C)NC(=O)[C@H](CC(N)=O)NC(=O)[C@H](CO)NC1=O [KBP-384] (Ac-CSNLSTC[Aib]LGK([AEEA-γGlu-C18 diacid])LSQDLHRLQTYPKTDVGANAP-NH2; disulfide 1-7 (inferred)) | – | Food Intake ΔFOOD Sustained Attenuation (4 nmol/kg) Hours (20 week HFD SD rats): 72 h; fibrillation tier (score in the ThT assay) ([1]; 18 h fluorescence signal): low; Peptide Fibrillation Thioflavin T ΔFluorescence 18 h Assay Score [1]: Low (Low=1000-3000 RFU)
– | – | – | CC(=O)N[C@H]1CSSC[C@@H](C(=O)NC(C)(C)C(=O)N[C@@H](CC(C)C)C(=O)NCC(=O)N[C@@H](CCCCNC(=O)COCCOCCNC(=O)COCCOCCNC(=O)COCCOCCNC(=O)CC[C@H](NC(=O)CCCCCCCCCCCCCCCCC(=O)O)C(=O)O)C(=O)N[C@@H](CC(C)C)C(=O)N[C@@H](CO)C(=O)N[C@@H](CCC(N)=O)C(=O)N[C@@H](CC(=O)O)C(=O)N[C@@H](CC(C)C)C(=O)N[C@@H](Cc2c[nH]cn2)C(=O)N[C@@H](CCCNC(=N)N)C(=O)N[C@@H](CC(C)C)C(=O)N[C@@H](CCC(N)=O)C(=O)N[C@H](C(=O)N[C@@H](Cc2ccc(O)cc2)C(=O)N2CCC[C@H]2C(=O)N[C@@H](CCCCN)C(=O)N[C@H](C(=O)N[C@@H](CC(=O)O)C(=O)N[C@H](C(=O)NCC(=O)N[C@@H](C)C(=O)N[C@@H](CC(N)=O)C(=O)N[C@@H](C)C(=O)N2CCC[C@H]2C(N)=O)C(C)C)[C@@H](C)O)[C@@H](C)O)NC(=O)[C@H]([C@@H](C)O)NC(=O)[C@H](CO)NC(=O)[C@H](CC(C)C)NC(=O)[C@H](CC(N)=O)NC(=O)[C@H](CO)NC1=O [KBP-385] (Ac-CSNLSTC[Aib]LGK([AEEA-AEEA-AEEA-γGlu-C18 diacid])LSQDLHRLQTYPKTDVGANAP-NH2; disulfide 1-7 (inferred)) | – | Food Intake ΔFOOD Sustained Attenuation (4 nmol/kg) Hours (20 week HFD SD rats): 72 h; Peptide Fibrillation Thioflavin T ΔFluorescence 18 h Assay Score [1]: None (None=<1000 RFU)
– | – | – | KBP-374: KBP-042 core with added C-terminal acylated lysine (A32 type, Table 1) (Ac-CSNLSTCVLGKLSQELHKLQTYPRTDVGANAPK; not fully specified (residue 33); ends and bridges not checked) | 72 h | –
45.6 nM | 7.8 nM | 1300 | Ac-CSNLSTCVLGKLSQELHKLQTYPRTDVGANAP-NH2 (not fully specified (residue 11); ends and bridges not checked) [KBP-372] | – | –
73.1 nM | 66 nM | 1400 | Ac-CSNLSTCMLGRLSQDLHRLQTYPKTDVGANAPK (not fully specified (residue 33); ends and bridges not checked) [KBP-377] | – | –
151 nM | 49.2 nM | 1070 | Ac-CSNLSTCVLGKLSQELHKLQTYPRTDVGANAPK (not fully specified (residue 33); ends and bridges not checked) [KBP-374] | – | –
